The values below come from ChEMBL document CHEMBL6071126, “Recent advances in the chemistry and biology of oleanolic acid and its derivatives” (Eur J Med Chem, 2024).

The structures appear in SMILES notation. ≈ marks a conversion by molar mass, not a printed value.

The subject of series [1] is HepG2. The series can be described thus: Antiproliferative activity against human HepG2 cells assessed as reduction in cell growth incubated for 72 hrs by MTT assay. In kind it is functional, cell-based. As to conditions: HepG2, 72 h. (In general: Tetrazolium dyes change colour on reduction, which living cells bring about.)
A further series has as its system HeLa. As to the kind of experiment: Cytotoxicity against human HeLa cells assessed as reduction in cell viability incubated for 48 hrs by MTT assay. Type of series: functional, cell-based.
The nature of series [2]: Potency index, ratio of OA IC50 to test compound IC50 for anti-inflammatory activity in LPS-induced mouse BV-2 cells assessed as inhibition of NO production. In kind it is functional.
The next series concerns Hathewaya histolytica. The series can be described thus: Inhibition of Clostridium histolyticum Collagenase at 250 ug/ml relative to control. The note with it: dose 250.0 µg/ml.
A short description of series [3]: Inhibition of Clostridium histolyticum Collagenase using DQ gelatin as substrate measured after 30 mins by fluorescence based microplate reader analysis. The arrangement: species or system Hathewaya histolytica.
Another series concerns the target Alpha glucosidase (Homo sapiens, UniProt O43451+P10253+P14410+Q2M2H8). The series can be described thus: Inhibition of Alpha glucosidase (unknown origin). Type of series: protein assay.
Another series relates to PC-3. The series can be described thus: Cytotoxicity against human PC-3 cells assessed as reduction in cell viability incubated for 72 hrs by MTT assay. Type of series: functional, cell-based. As to conditions: PC-3, 72 h.
For series [4], the system named is HepG2. The series can be described thus: Cytotoxicity against human HepG2 cells assessed as reduction in cell viability incubated for 72 hrs by MTT assay. The note with it: HepG2, 72 h.
A further series has as its system MCF7. As to the kind of experiment: Cytotoxicity against human MCF7 cells assessed as reduction in cell viability incubated for 72 hrs by MTT assay. As to conditions: MCF7, 72 h.
Another series relates to BGC-823. As to the kind of experiment: Cytotoxicity against human BGC-823 cells assessed as reduction in cell viability incubated for 72 hrs by MTT assay. In kind it is functional, cell-based. As to conditions: BGC-823, 72 h.
For the next series, the system named is A549. As to the kind of experiment: Cytotoxicity against human A549 cells assessed as reduction in cell viability incubated for 72 hrs by MTT assay. The note with it: A549, 72 h.
A short description of series [5]: Aqueous solubility of compound. Type of series: physicochemical.
A short description of series [6]: Oral bioavailability in rat. Type of series: ADME, organism-based. The note with it: in vivo.
A short description of series [7]: Apparent permeability across apical to basolateral side in human Caco-2 cells at 10 uM incubated for 90 mins at pH 7.4 by LC/MS analysis. In kind it is ADME, cell-based. As to conditions: Caco-2, pH 7.4. For orientation: Caco-2 monolayers are a common model of the intestinal barrier.

As for `CON(C[C@]12CCC(C)(C)CC1C1=CCC3[C@@]4(C)CC[C@H](O)C(C)(C)C4CC[C@@]3(C)[C@]1(C)CC2)[C@@H]1O[C@H](CO)[C@@H](O)[C@H](O)[C@H]1O` (stereo partly specified), the IC50 (usually the concentration that inhibits the measured activity by half) in the series on HepG2 [1] worked out at 2100 nM.
For the compound `Cc1ccccc1COC(=O)[C@]12CCC(C)(C)CC1C1=CCC3[C@@]4(C)CC[C@H](OC(=O)/C=C/c5ccc([N+](=O)[O-])cc5)C(C)(C)C4CC[C@@]3(C)[C@]1(C)CC2` (stereo partly specified), the IC50 with HeLa came out at 1350 nM.
For `COC(=O)[C@]12CCC(C)(C)CC1C1=CC(=O)C3[C@@]4(C)Cc5c([nH]c6ccc(C#N)cc56)C(C)(C)C4CC[C@@]3(C)[C@]1(C)CC2` (stereo partly specified), in [2], the “Ratio IC50” value amounted to 1.93.
On to `CC(C)[C@H](NC(=O)[C@H](CCCCN)NC(=O)[C@]12CCC(C)(C)CC1C1=CCC3[C@@]4(C)CC[C@H](O)C(C)(C)C4CC[C@@]3(C)[C@]1(C)CC2)C(=O)N[C@@H](CCCCN)C(=O)O` (stereo partly specified), for which, in the series with Hathewaya histolytica, the inhibition (commonly the drop in the measured response relative to a control, in per cent) was 100%. Also, the IC50 in series [3] turned out to be 48.8 µg/mL (≈ 60.1 µM).
In the case of `CC1(C)CC[C@]2(C(=O)C(=O)O)CC[C@]3(C)C(=CCC4[C@@]5(C)Cc6cnn(-c7ccc(Cl)cc7)c6C(C)(C)C5CC[C@]43C)C2C1` (stereo partly specified), at Alpha glucosidase, the IC50 is 2640 nM.
For `COC(=O)[C@]12CCC(C)(C)CC1C1=CC(=O)C3[C@@]4(C)Cc5c([nH]c6cc(F)cc(F)c56)C(C)(C)C4CC[C@@]3(C)[C@]1(C)CC2` (stereo partly specified), the “Ratio IC50” value in [2] is recorded as 2.41.
On to `CC1(C)CC[C@]2(C(=O)OCc3ccccc3Cl)CC[C@]3(C)C(=CCC4[C@@]5(C)CC[C@H](O)C(C)(C)C5CC[C@]43C)C2C1` (stereo partly specified), for which the IC50 in the series with HeLa is 1550 nM.
As for `O=c1[nH]cc(F)c(=O)[nH]1` [FLUOROURACIL], the IC50 with PC-3, with HepG2 [4], in the series with MCF7, in the series on BGC-823 and in the series with A549 was under 1000 nM each time.
For `CC1(C)CC[C@]2(C(=O)O)CC[C@]3(C)C(=CC[C@@H]4[C@@]5(C)CC[C@H](O)C(C)(C)[C@@H]5CC[C@]43C)[C@@H]2C1` [OLEANOLIC_ACID], in [5], the solubility (in general, the concentration that dissolves in the medium under given conditions) is under 1 µg/mL. Besides, the bioavailability (usually dose-corrected exposure relative to a reference, in per cent) in series [6] stood at 0.7%. In addition, the Papp A→B – broadly, the apparent permeability from the apical to the basolateral side of a cell layer – at 1.5 h, 10 µM in series [7] came out at 1.1 ×10⁻⁶ cm/s.
